Reference: patent US20080293686A1, “SEMI-SOLID SYSTEMS CONTAINING AZETIDINE DERIVATIVES” (AVENTIS PHARMA S.A., priority 2003, published 2008)
Values after ≈ are worked out from the molar mass of the structure shown.

What was measured:
[1] = Solubility of compound (Ic) in lipids and other pharmaceutical cosolvents; type: physicochemical; details: in Soyabean oil
Text: The first step was to determine the solubility of compound (Ic) in an exhaustive series of lipids and other pharmaceutical cosolvents including vegetable oils, lipidic components, surfactants, hydrophilic components and phospholipids. The protocol of the solubility measurement is reported in the annex.

[2] = Colloidal stability and self-emulsifying properties after incubation with simulated gastrointestinal fluids and filtration; type: physicochemical; details: diluted 1:50, 2 hours at 37° C., theoretical concentration 200 μg/ml
Method: The following simulated media were selected for the present experiment: • Gastric medium USP, pH 1.2 • Fasted intestinal medium, pH 6.8 (ref. Dressman et al., Pharm. Res., 1998) • Fed intestinal medium, pH 5 (ref. Dressman et al., Pharm. Res., 1998)
All Compound (Ic) formulations (400 mg) were diluted 1:50 in the gastric, fasted intestinal or fed intestinal medium (20 ml), then incubated during 2 hours at 37° C. under mechanical stirring (300 rpm). The drug concentration was determined by HPLC before and after filtration (2 μm).
The aim of this second part of the study was to evaluate the colloidal stability and the self-emulsifying properties of the emulsion/microemulsion/micellar solution of the (Ic) formulation after incubation in the GI media. Thus, the sample was filtered onto 2 μm (able to retain oil droplets >2 μm, as well as drug crystals >2 μm) then dosed by HPLC. The filter size (2 μm) has been chosen after a screening with different filter sizes (0.45, 2 and 5 μm) tested on the aqueous solution of the drug. […] In summary, the filtered fraction was approximately 1% in the gastric medium, 2% in the fasted intestinal medium, 4.5-5.5% in the fed intestinal medium.

- solubility [1]: 31.8 mg/mL (≈ 64.3 mM)
- Compound (Ic) recovered after filtration (2 μm) after previous incubation with GI media ([2]; Fasted intestinal pH 6.8): 4.2 µg/mL
- Compound (Ic) recovered after filtration (2 μm) after previous incubation with GI media ([2]; Fed intestinal pH 5): 8.8 µg/mL
- Compound (Ic) recovered after filtration (2 μm) after previous incubation with GI media ([2]; Gastric medium): 1.9 µg/mL
Structure (SMILES): CS(=O)(=O)C(=C1CN(C(c2ccc(Cl)cc2)c2ccc(Cl)cc2)C1)c1cc(F)cc(F)c1 [Compound (Ic)]
